Experimental data taken from the supplement of paper PMC10307832.

Legend:
Experiment in all cases: relative viability (nuclei count vs DMSO), 5 days (fraction); higher = more cells survive
Dovitinib + Linsitinib = compound: CN1CCN(c2ccc3nc(-c4c(N)c5c(F)cccc5[nH]c4=O)[nH]c3c2)CC1 [Dovitinib] + C[C@]1(O)C[C@@H](c2nc(-c3ccc4ccc(-c5ccccc5)nc4c3)c3c(N)nccn32)C1 [Linsitinib] (partner 1 µM)
Outline: (§1)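 Relative viability divides the nuclei count in treated wells by that in vehicle wells. Lung cancer cell lines were seeded in 1536-well plates, dosed by pin tool the next day, and fixed and stained after 5 days in one step with final 0.05% Triton X-100, 1% formaldehyde and 1 ug/ml Hoechst. Dosing was a single drug or a fixed anchor-drug dose plus five library-drug doses (not always all listed) in √10 steps, and values are medians of duplicate plates imaged at 4×.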

Dovitinib + Pemetrexed = compound: CN1CCN(c2ccc3nc(-c4c(N)c5c(F)cccc5[nH]c4=O)[nH]c3c2)CC1 [Dovitinib] + Nc1nc2[nH]cc(CCc3ccc(C(=O)N[C@@H](CCC(=O)O)C(=O)O)cc3)c2c(=O)[nH]1 [Pemetrexed] (partner 0.2 µM)
Outline: as §1

Dovitinib + Vorinostat = compound: CN1CCN(c2ccc3nc(-c4c(N)c5c(F)cccc5[nH]c4=O)[nH]c3c2)CC1 [Dovitinib] + O=C(CCCCCCC(=O)Nc1ccccc1)NO [Vorinostat] (partner 1 µM)
Outline: as §1

Dovitinib + Olaparib = compound: CN1CCN(c2ccc3nc(-c4c(N)c5c(F)cccc5[nH]c4=O)[nH]c3c2)CC1 [Dovitinib] + O=C(c1cc(Cc2n[nH]c(=O)c3ccccc23)ccc1F)N1CCN(C(=O)C2CC2)CC1 [Olaparib] (partner 8 µM)
Outline: as §1

| Cell Line | relative viability (Dovitinib + Linsitinib; first compound 0.02 µM) | relative viability (Dovitinib + Linsitinib; first compound 0.06325 µM) | relative viability (Dovitinib + Linsitinib; first compound 0.2 µM) | relative viability (Dovitinib + Linsitinib; first compound 0.6325 µM) | relative viability (Dovitinib + Linsitinib; first compound 2 µM) | relative viability (Dovitinib + Pemetrexed; first compound 0.02 µM) | relative viability (Dovitinib + Pemetrexed; first compound 0.06325 µM) | relative viability (Dovitinib + Pemetrexed; first compound 0.2 µM) | relative viability (Dovitinib + Pemetrexed; first compound 0.6325 µM) | relative viability (Dovitinib + Pemetrexed; first compound 2 µM) | relative viability (Dovitinib + Vorinostat; first compound 0.02 µM) | relative viability (Dovitinib + Vorinostat; first compound 0.06325 µM) | relative viability (Dovitinib + Vorinostat; first compound 0.2 µM) | relative viability (Dovitinib + Vorinostat; first compound 0.6325 µM) | relative viability (Dovitinib + Vorinostat; first compound 2 µM) | relative viability (Dovitinib + Olaparib; first compound 0.02 µM) | relative viability (Dovitinib + Olaparib; first compound 0.06325 µM) | relative viability (Dovitinib + Olaparib; first compound 0.2 µM) | relative viability (Dovitinib + Olaparib; first compound 0.6325 µM) | relative viability (Dovitinib + Olaparib; first compound 2 µM) |
| --- | --- | --- | --- | --- | --- | --- | --- | --- | --- | --- | --- | --- | --- | --- | --- | --- | --- | --- | --- | --- |
| COR-L 105 | 1.04 | 0.912 | 0.834 | 0.855 | 0.961 | 1.23 | 1.09 | 1.05 | 1 | 0.92 | 0.867 | 0.801 | 0.833 | 0.69 | 0.794 | 0.691 | 0.712 | 0.72 | 0.765 | 0.638 |
| EKVX | 1.01 | 1.05 | 1 | 1.02 | 0.978 | 0.434 | 0.385 | 0.42 | 0.46 | 0.372 | 0.799 | 0.776 | 0.836 | 0.75 | 0.739 | 0.897 | 0.723 | 0.862 | 0.831 | 0.904 |
| EMC-BAC-2 | 0.799 | 0.799 | 0.825 | 0.797 | 0.843 | 0.555 | 0.442 | 0.487 | 0.445 | 0.459 | 0.512 | 0.449 | 0.422 | 0.522 | 0.517 | 0.569 | 0.513 | 0.5 | 0.486 | 0.504 |
| EPLC-272H | 1.17 | 1.16 | 1.2 | 1.11 | 1.16 | 0.408 | 0.35 | 0.274 | 0.398 | 0.372 | 0.564 | 0.522 | 0.434 | 0.402 | 0.367 | 0.815 | 0.893 | 0.793 | 0.681 | 0.57 |
| H3255 | 1 | 0.937 | 1.01 | 1.02 | 1.02 | 0.609 | 0.579 | 0.568 | 0.64 | 0.599 | 0.684 | 0.886 | 0.862 | 0.778 | 0.711 | 0.549 | 0.553 | 0.547 | 0.542 | 0.548 |
| HARA | 1 | 0.943 | 0.924 | 0.968 | 0.859 | 0.256 | 0.254 | 0.233 | 0.241 | 0.258 | 0.553 | 0.542 | 0.645 | 0.676 | 0.569 | 0.973 | 0.921 | 1.07 | 0.775 | 0.885 |
| HCC-15 | 0.952 | 0.831 | 0.938 | 0.879 | 0.941 | 0.225 | 0.228 | 0.213 | 0.231 | 0.216 | 0.931 | 0.873 | 0.815 | 0.837 | 0.85 | 0.687 | 0.703 | 0.71 | 0.696 | 0.726 |
| HCC-44 | 0.681 | 0.667 | 0.681 | 0.773 | 0.628 | 0.617 | 0.659 | 0.685 | 0.687 | 0.586 | 1.08 | 1.1 | 1.08 | 1.09 | 1.08 | 0.976 | 0.977 | 0.949 | 0.996 | 0.92 |
| HCC-78 | 0.693 | – | 0.626 | 0.478 | 0.532 | 0.914 | 0.934 | 0.931 | 0.889 | 0.865 | 0.413 | 0.415 | 0.39 | 0.533 | 0.431 | 0.887 | 0.665 | 1.05 | 0.777 | 0.888 |
| HCC-366 | 0.645 | 0.584 | 0.549 | 0.665 | 0.592 | 0.129 | 0.208 | 0.161 | 0.161 | 0.166 | 0.325 | 0.353 | 0.338 | 0.429 | 0.385 | 0.324 | 0.352 | 0.412 | 0.297 | 0.324 |
| HCC-827 | 0.895 | 0.97 | 0.959 | 0.928 | 0.898 | 0.259 | 0.119 | 0.245 | 0.264 | 0.25 | 0.799 | 0.867 | 0.876 | 0.841 | 0.805 | 0.626 | 0.697 | 0.646 | 0.68 | 0.678 |
| HOP-62 | 0.784 | 0.852 | 1.1 | 0.921 | 1.03 | 0.272 | 0.337 | 0.32 | 0.269 | 0.385 | 0.469 | 0.469 | 0.588 | 0.667 | 0.797 | 0.346 | 0.559 | 0.425 | 0.329 | 0.352 |
| LC-2-ad | 0.798 | 0.919 | 0.84 | 0.782 | 0.773 | 0.27 | 0.29 | 0.306 | 0.259 | 0.269 | 0.674 | 0.735 | 0.712 | 0.758 | 0.804 | 0.691 | 0.666 | 0.734 | 0.775 | 0.741 |
| LCLC-97TM1 | 0.216 | 0.21 | 0.201 | 0.152 | 0.213 | 0.16 | 0.155 | 0.198 | 0.184 | 0.163 | 0.719 | 0.612 | 0.734 | 0.688 | 0.751 | 0.371 | 0.443 | 0.369 | 0.364 | 0.255 |
